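Following 48 hours of exposure in 96-well plates, responses at five concentrations were used to interpolate endpoints linearly. GI50: concentration for 50% inhibition of growth.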 Active and inactive are the calls of the source. No stated cut-off is given here; in the data, active = GI50 up to about 1.1 µM and inactive = higher.
Tests used:
Experiment in all cases: NCI tumour cell line growth inhibition, 48 h
[1] = test system: A549
[2] = test system: SK-MEL-5
[3] = test system: NCI/ADR-RES
[4] = test system: LOX IMVI
[5] = test system: EKVX
[6] = test system: 786-0
[7] = test system: CAKI-1
[8] = test system: T47D
[9] = test system: SNB-75
[10] = test system: OVCAR-3
[11] = test system: OVCAR-4
[12] = test system: SW-620
[13] = test system: SF-295
[14] = test system: MDA-N
[15] = test system: SF-268
[16] = test system: PC-3
[17] = test system: SNB-19
[18] = test system: A498
[19] = test system: COLO 205
[20] = test system: BT-549

Structure (SMILES) | GI50 [1] | GI50 [2] | GI50 [3] | GI50 [4] | GI50 [5] | GI50 [6] | GI50 [7] | GI50 [8] | GI50 [9] | GI50 [10] | GI50 [11] | GI50 [12] | GI50 [13] | GI50 [14] | GI50 [15] | GI50 [16] | GI50 [17] | GI50 [18] | GI50 [19] | GI50 [20]
CCCCCCCCCCCCCCCCCC(=O)OCC(COC1OC(COP(=O)(O)O)C(O)C(O)C1O)OC(=O)CCCCCCCCCCCCCCCCC (centres undefined) | 7.46 µM (inactive) | 9.1 µM (inactive) | 9.33 µM (inactive) | 9.06 µM (inactive) | 7.74 µM (inactive) | 7.94 µM (inactive) | 9.73 µM (inactive) | 11.9 µM (inactive) | 4.63 µM (inactive) | 8.87 µM (inactive) | 7.41 µM (inactive) | 10.3 µM (inactive) | 4.02 µM (inactive) | 10.7 µM (inactive) | 8.97 µM (inactive) | 7.62 µM (inactive) | 8 µM (inactive) | 6.03 µM (inactive) | 9.59 µM (inactive) | 
COc1ccc2c(=O)c(-c3cc4c(cc3OC)OCO4)coc2c1 | > 100 µM (inactive) | > 100 µM (inactive) | > 100 µM (inactive) | > 100 µM (inactive) | > 100 µM (inactive) | 60.1 µM (inactive) | 51.8 µM (inactive) | > 100 µM (inactive) | 93.3 µM (inactive) | > 100 µM (inactive) | > 100 µM (inactive) | > 100 µM (inactive) | 37.7 µM (inactive) |  | 72.8 µM (inactive) | > 100 µM (inactive) | 52 µM (inactive) | > 100 µM (inactive) | > 100 µM (inactive) | > 100 µM (inactive)
COC(=O)C1(NC(=O)C(Cc2ccccc2)N(C(=O)OC(C)(C)C)C(=O)OC(C)(C)C)CCCC1 (centres undefined) | 37.9 µM (inactive) | > 100 µM (inactive) | 22.3 µM (inactive) | > 100 µM (inactive) | 66.2 µM (inactive) | > 10 µM (inactive) |  | 36.6 µM (inactive) | > 100 µM (inactive) |  |  | > 100 µM (inactive) |  | > 100 µM (inactive) | > 100 µM (inactive) | 31 µM (inactive) | > 100 µM (inactive) | 25.8 µM (inactive) | > 100 µM (inactive) | 
Cc1cc2c(c3oc(C4(C)OC4C4OC4C)cc(=O)c13)C(=O)c1c(O)c(C3CC(C)(N(C)C)C(O)C(C)O3)cc(C3CC(N(C)C)C(O)C(C)O3)c1C2=O (centres undefined) | 0.0025 µM (active) | 0.00112 µM (active) | 0.000118 µM (active) |  |  | 0.000129 µM (active) | 5.46e-05 µM (active) | 0.00018 µM (active) |  | 0.000191 µM (active) |  | 0.0025 µM (active) | 4.68e-05 µM (active) |  | 2.5e-05 µM (active) | 6.52e-05 µM (active) | 0.0025 µM (active) |  | 9.53e-05 µM (active) | 0.00011 µM (active)
CCCCCCCCCCCCC/C=C/[C@@H](O)[C@H](COC1OC(CO)C(OC2OC(CO)C(O)C(OC3(C(=O)O)CC(O)C(NC(C)=O)C(C(O)C(O)CO)O3)C2O)C(O)C1O)N=[N+]=[N-] (some centres undefined) | > 100 µM (inactive) | 17.4 µM (inactive) | 21.8 µM (inactive) | 20.2 µM (inactive) | > 100 µM (inactive) | > 100 µM (inactive) | > 100 µM (inactive) | 48.5 µM (inactive) | 15.9 µM (inactive) | > 100 µM (inactive) | > 100 µM (inactive) | 26.7 µM (inactive) | 26.4 µM (inactive) | > 100 µM (inactive) | 22.2 µM (inactive) | 24.2 µM (inactive) | 34 µM (inactive) | 47.2 µM (inactive) | 17.8 µM (inactive) | 
COc1ccc2[nH]c3c([N+](=O)[O-])ccc(NCCN(C)C)c3/c(=N/CCN(C)C)c2c1 | 1.66 µM (inactive) | 1.86 µM (inactive) |  | 1.62 µM (inactive) | 2.24 µM (inactive) | 0.577 µM (active) | 3.97 µM (inactive) | > 10 µM (inactive) | 1.8 µM (inactive) |  | 0.521 µM (active) | 1.04 µM (active) | 1.58 µM (inactive) | 1.75 µM (inactive) | 0.962 µM (active) | 0.676 µM (active) |  |  | 2.01 µM (inactive) | 
Clc1ccc2ns[s+]c2c1 | 5.24 µM (inactive) | 15.5 µM (inactive) |  | 1.29 µM (inactive) | 17.7 µM (inactive) | 53.8 µM (inactive) | 1.63 µM (inactive) | 11.7 µM (inactive) | > 79.3 µM (inactive) | 31.6 µM (inactive) | 22.4 µM (inactive) | 6.62 µM (inactive) | 0.853 µM (active) | 3.4 µM (inactive) | 11.3 µM (inactive) | 0.847 µM (active) | 29.2 µM (inactive) | > 100 µM (inactive) | 1.79 µM (inactive) | 16.3 µM (inactive)
CC1OC(OC2C[C@](O)(C(=O)CF)Cc3c(O)c4c(c(O)c32)C(=O)c2ccccc2C4=O)CC(N)C1O (some centres undefined) | < 0.01 µM (active) | < 0.0113 µM (active) |  | < 0.01 µM (active) | 0.507 µM (active) | < 0.01 µM (active) | < 0.01 µM (active) | 0.0106 µM (active) | 0.0161 µM (active) | 0.233 µM (active) | 0.152 µM (active) | < 0.0116 µM (active) | < 0.01 µM (active) | 0.108 µM (active) | 0.0255 µM (active) | 0.0275 µM (active) | < 0.014 µM (active) | 0.233 µM (active) | 0.0296 µM (active) | 0.131 µM (active)
